Assay [1] concerns the target T1, human Cystic Fibrosis Transmembrane Conductance Regulator (CFTR) harboring the ΔF508 mutation (Homo sapiens, UniProt P13569, DEL508-508).
T1 construct: expressed in transfected cells; host or cells: H441 carcinoma line (G418-selected)
In words: H441 cell ΔF508-CFTR-HRP cell surface assay (Emax and EC50). The class given is cell-based. The following applies: for Emax: NCI-H441, NA = Not active. Summed up:
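H441 and 41o- bronchial epithelial cells expressing ΔF508-CFTR with an extracellular-loop-4 HRP tag were treated with a 15-point compound series (24.5–0.001 μM) for two nights, H441 at 27° C, 41o- at 37° C with 0.0005 mg/ml doxycycline. Surface HRP luminescence read; % of maximum VX809 signal and EC50 derived.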

In assay [2] the target is T2, CFTR-mediated transepithelial chloride transport in primary human bronchial epithelial cells from a ΔF508 homozygous CF donor (Homo sapiens, UniProt P13569, DEL508-508).
T2 construct: Primary human bronchial epithelial cells from a ΔF508 homozygous CF donor; host or cells: primary CF-HBE cells, ΔF508 homozygous donor
Put plainly: TECC24 recording of CFTR-mediated transepithelial chloride transport in CF-HBE cells (AUC fold over DMSO). The assay is classed as cell-based. Particulars: test agent 10 μM, 48 hours incubation, AUC of forskolin-stimulated IEQ relative to DMSO. On the procedure: Example 316: TECC24 AUC Fold Over DMSO @ 10 uM
The effects of a test agent on CFTR-mediated transepithelial chloride transport was measured using TECC24 recording analysis. Test agents were solubilized in DMSO. Solubilized test agents were mixed with incubation medium containing DMEM/F12, Ultroser G (2%; Crescent Chemical, catalog #67042), Hyclone Fetal Clone II (2%; GE Healthcare, catalog #SH30066.02), bovine brain extract (0.25%; Lonza, catalog #CC-4098), insulin (2.5 μg/mL), IL-13 (10 ng/mL), hydrocortisone (20 nM), transferrin (2.5 μg/mL), triiodothyronine (500 nM), ethanolamine (250 nM), epinephrine (1.5 μM), phosphoethanolamine (250 nM), and retinoic acid (10 nM). Primary human bronchial epithelial cells from a ΔF508 homozygous CF donor (CF-HBE cells; from University of North Carolina Cystic Fibrosis Tissue Procurement Center), grown on Transwell HTS 24-well cell culture inserts (Costar, catalog #3378), were exposed to test agents or controls dissolved in incubation medium. The CF-HBE cells were cultured at 36.5° C. for 48 hours before TECC24 recordings were performed in the presence or absence of test agent, a positive control or vehicle (DMSO).
Following incubation, the transwell cell culture inserts containing the test agent or control-treated CF-HBE cells were loaded onto a TECC24 apparatus (TECC v7 or MTECC v2; EP Design) to record the transepithelial voltage (VT) and resistance (TEER) using 4 AgCl electrodes per well configured in current-clamp mode. The apical and basolateral bath solutions both contained (in mM) 140 NaCl, 5 KCl, 2 CaCl2), 1 MgCl2, 10 Hepes, and 10 glucose (adjusted to pH 7.4 with NaOH). To inhibit basal Na+ absorption, the ENaC inhibitor benzamil (10 μM) was added to the bath. Then, the adenylate cyclase activator, forskolin (10 μM), was added to the bath to activate CFTR. The forskolin-stimulated Cl-transport was halted by addition of CFTR inhibitor-172 (20 μM) to the bath at the end of the experiment to confirm specificity. VT and TEER recordings were digitally acquired at routine intervals using TECC or MTECC software (EP Design). VT and TEER were transformed into equivalent transepithelial Cl-current (IEQ), and the Area Under the Curve (AUC) of the IEQ time course between forskolin and CFTR inhibitor-172 addition was generated using Excel (Microsoft). Efficacy is expressed as the ratio of the test agent AUC divided by vehicle AUC. EC50s based on AUC are generated using the non-linear regression log(agonist) vs. response function in Prism software (GraphPad) with Hill Slope fixed=1.
If a test agent increased the AUC of the forskolin-stimulated IEQ relative to vehicle in CF-HBE cells, and this increase was inhibited by CFTR inhibitor-172, then the test agent was considered a CFTR corrector.

The structures appear in SMILES notation.

T1 sequence (P13569 with tags, fused parts or gaps DEL508-508): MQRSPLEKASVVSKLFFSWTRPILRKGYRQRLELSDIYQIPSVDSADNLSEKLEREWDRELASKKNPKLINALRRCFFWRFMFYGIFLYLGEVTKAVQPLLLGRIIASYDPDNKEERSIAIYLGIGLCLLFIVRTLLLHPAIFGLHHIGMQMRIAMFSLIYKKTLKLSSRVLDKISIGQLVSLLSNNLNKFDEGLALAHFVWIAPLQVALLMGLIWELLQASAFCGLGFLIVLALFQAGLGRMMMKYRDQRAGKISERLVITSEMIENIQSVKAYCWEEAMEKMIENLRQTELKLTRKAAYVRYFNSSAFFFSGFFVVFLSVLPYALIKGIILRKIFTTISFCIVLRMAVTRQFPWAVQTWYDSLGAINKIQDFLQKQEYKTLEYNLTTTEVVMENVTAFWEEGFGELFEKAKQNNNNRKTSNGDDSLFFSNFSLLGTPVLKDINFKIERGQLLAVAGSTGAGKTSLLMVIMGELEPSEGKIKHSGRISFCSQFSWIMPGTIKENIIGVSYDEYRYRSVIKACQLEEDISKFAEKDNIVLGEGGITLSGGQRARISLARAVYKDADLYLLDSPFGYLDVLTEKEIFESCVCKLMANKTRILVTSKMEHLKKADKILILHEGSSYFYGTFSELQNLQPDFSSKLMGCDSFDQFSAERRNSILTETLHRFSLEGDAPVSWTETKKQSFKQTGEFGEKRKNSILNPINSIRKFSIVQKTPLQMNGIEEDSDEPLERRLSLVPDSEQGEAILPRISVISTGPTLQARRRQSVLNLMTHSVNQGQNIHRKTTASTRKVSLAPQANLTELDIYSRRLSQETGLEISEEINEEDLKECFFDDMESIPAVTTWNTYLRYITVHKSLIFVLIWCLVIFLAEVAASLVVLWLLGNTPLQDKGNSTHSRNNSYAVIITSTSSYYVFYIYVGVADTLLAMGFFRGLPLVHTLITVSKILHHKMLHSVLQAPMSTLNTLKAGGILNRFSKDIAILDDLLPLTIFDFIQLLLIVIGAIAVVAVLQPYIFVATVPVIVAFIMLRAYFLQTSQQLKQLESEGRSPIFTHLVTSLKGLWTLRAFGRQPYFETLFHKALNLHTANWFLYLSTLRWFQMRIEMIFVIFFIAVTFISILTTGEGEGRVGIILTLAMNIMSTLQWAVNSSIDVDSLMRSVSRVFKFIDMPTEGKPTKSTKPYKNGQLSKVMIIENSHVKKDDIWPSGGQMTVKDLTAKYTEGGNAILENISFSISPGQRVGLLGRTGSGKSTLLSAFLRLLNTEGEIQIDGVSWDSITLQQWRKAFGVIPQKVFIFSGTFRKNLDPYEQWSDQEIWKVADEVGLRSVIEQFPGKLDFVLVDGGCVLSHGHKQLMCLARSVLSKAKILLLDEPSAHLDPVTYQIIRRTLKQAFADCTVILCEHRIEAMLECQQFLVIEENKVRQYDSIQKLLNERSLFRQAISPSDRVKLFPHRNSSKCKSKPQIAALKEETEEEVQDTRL
T2 sequence (P13569 with tags, fused parts or gaps DEL508-508): as above

With `CC(C)(C)[C@H](NC(=O)c1cc(Br)c2ccccc2c1OCc1ccc(C(F)(F)F)cc1)C(=O)O` [Example 51, (S)-2-(4-bromo-1-((4-(trifluoromethyl)benzyl)oxy)-2-naphthamido)-3,3-dimethylbutanoic Acid], in assay [1], the EC50 – broadly, the concentration at which the effect is half-maximal – is 400 nM and the Emax – broadly, the greatest response seen or fitted, relative to the assay's reference – amounted to 200%. In addition, the “TECC24 AUC fold over DMSO @10 μM” value in assay [2] is given as “C (“C” refers to AUC @10 uM <4)”.
For `CC(C)(C)[C@H](NC(=O)c1ccc2cc(N)ccc2c1OCc1ccc(C(F)(F)F)cc1)C(=O)O` [Example 52, (S)-2-(6-amino-1-((4-(trifluoromethyl)benzyl)oxy)-2-naphthamido)-3,3-dimethylbutanoic Acid], in assay [1], a half-maximal effect (EC50) was put at 7300 nM and the maximum response (Emax) is 91.4%. Besides, the “TECC24 AUC fold over DMSO @10 μM” value in assay [2] was “C (“C” refers to AUC @10 uM <4)”.
The like results for `CCC(C)(C)[C@H](NC(=O)c1ccc2ccccc2c1OCc1ccc(SC(F)(F)F)cc1)C(=O)O` [Example 55, (S)-3,3-dimethyl-2-(1-((4-((trifluoromethyl)thio)benzyl)oxy)-2-naphthamido)pentanoic Acid] were, in that order, 600 nM, 115% and “B (“B” refers to AUC @10 uM between 4-6)”.
Turning to `CC1(C(NC(=O)c2ccc3ccccc3c2OCc2ccc(C(F)(F)F)cc2)C(=O)O)CC1` (stereo not drawn) [Example 56, 2-(1-methylcyclopropyl)-2-(1-((4-(trifluoromethyl)benzyl)oxy)-2-naphthamido)acetic Acid], in assay [1], the EC50 was 1700 nM and the maximal effect (Emax) was determined as 127%. The “TECC24 AUC fold over DMSO @10 μM” value in assay [2] is recorded as “C (“C” refers to AUC @10 uM <4)”.
In assay [1], `CC(C)(C)[C@H](NC(=O)c1ccc2ccccc2c1OCc1ccc(S(=O)(=O)C(F)(F)F)cc1)C(=O)O` [Example 57, (S)-3,3-dimethyl-2-(1-((4-((trifluoromethyl)sulfonyl)benzyl)oxy)-2-naphthamido)butanoic Acid] came in with an EC50 of 1500 nM and an Emax of 87.9%. Besides, the “TECC24 AUC fold over DMSO @10 μM” value in assay [2] is on record as “C (“C” refers to AUC @10 uM <4)”.
In assay [1], `CC(C)(C)[C@H](NC(=O)c1ccc2ccccc2c1OCc1nc2ccccc2s1)C(=O)O` [Example 58, (S)-2-(1-(benzo[d]thiazol-2-ylmethoxy)-2-naphthamido)-3,3-dimethylbutanoic Acid] showed a half-maximal effective concentration (EC50) of 2800 nM and a maximum response (Emax) of 139%. For the same compound, the “TECC24 AUC fold over DMSO @10 μM” value in assay [2] is “C (“C” refers to AUC @10 uM <4)”.
The like results for `CC(C)(C)[C@H](NC(=O)c1ccc2cc(O)ccc2c1OCc1ccc(C(F)(F)F)cc1)C(=O)O` [Example 59, (S)-2-(6-hydroxy-1-((4-(trifluoromethyl)benzyl)oxy)-2-naphthamido)-3,3-dimethylbutanoic Acid] were, in that order, 1900 nM, 108% and “C (“C” refers to AUC @10 uM <4)”.
In assay [1], `CC(C)(C)[C@H](NC(=O)c1ccc2cc(F)ccc2c1OCc1nc2ccccc2s1)C(=O)O` [Example 61, (S)-2-(1-(benzo[d]thiazol-2-ylmethoxy)-6-fluoro-2-naphthamido)-3,3-dimethylbutanoic Acid] displayed an EC50 of 2700 nM and an Emax of 132%. In assay [2], the “TECC24 AUC fold over DMSO @10 μM” value is recorded as “C (“C” refers to AUC @10 uM <4)”.
Turning to `CC(C)(C)[C@H](NC(=O)c1cc(F)c2ccccc2c1OCc1ccc(C(F)(F)F)cc1)C(=O)O` [Example 64, (S)-2-(4-fluoro-1-((4-(trifluoromethyl)benzyl)oxy)-2-naphthamido)-3,3-dimethylbutanoic Acid], in assay [1], the half-maximal effective concentration (EC50) came to 600 nM and the maximal response (Emax) is 106%. In assay [2], the “TECC24 AUC fold over DMSO @10 μM” value is listed as “C (“C” refers to AUC @10 uM <4)”.
Turning to `CC(C)(C)[C@H](NC(=O)c1ccc2ccccc2c1OCc1ccc(S(F)(F)(F)(F)F)cc1)C(=O)O` [Example 67, (S)-3,3-dimethyl-2-(1-((4-(pentafluoro-l6-sulfanyl)benzyl)oxy)-2-naphthamido)butanoic Acid], in assay [1], the EC50 worked out at 800 nM and the Emax worked out at 112%. Moreover, in assay [2], the “TECC24 AUC fold over DMSO @10 μM” value is “A (“A” refers to AUC @10 uM >6)”.
For `CC1(C(NC(=O)c2ccc3ccccc3c2OCc2ccc(S(F)(F)(F)(F)F)cc2)C(=O)O)CC1` (stereo not drawn) [Example 68, 2-(1-methylcyclopropyl)-2-(1-((4-(pentafluoro-l6-sulfanyl)benzyl)oxy)-2-naphthamido)acetic Acid], in assay [1], the midpoint of the response, the EC50, lay at 1900 nM and the maximum response (Emax) was 104%. The “TECC24 AUC fold over DMSO @10 μM” value in assay [2] is on record as “C (“C” refers to AUC @10 uM <4)”.
In assay [1], `CC1(C(NC(=O)c2ccc3cc(F)ccc3c2OCc2ccc(SC(F)(F)F)cc2)C(=O)O)CCCCC1` (stereo not drawn) [Example 69, 2-(6-fluoro-1-((4-((trifluoromethyl)thio)benzyl)oxy)-2-naphthamido)-2-(1-methylcyclohexyl)acetic Acid] yielded an EC50 of 400 nM and an Emax of 57.7%. For the same compound, the “TECC24 AUC fold over DMSO @10 μM” value in assay [2] was “C (“C” refers to AUC @10 uM <4)”.
Take `CC(C)(C)[C@H](NC(=O)c1ccc2ccccc2c1OCc1ccc(C(F)(F)F)cc1F)C(=O)O` [Example 70, (S)-2-(1-((2-fluoro-4-(trifluoromethyl)benzyl)oxy)-2-naphthamido)-3,3-dimethylbutanoic Acid]: in assay [1], the EC50 came to 800 nM and the Emax was 272%. In addition, the “TECC24 AUC fold over DMSO @10 μM” value in assay [2] is on record as “C (“C” refers to AUC @10 uM <4)”.
In assay [1], `CC(C)(C)[C@H](NC(=O)c1ccc2ccccc2c1OCC1CCCCC1)C(=O)O` [Example 72, (S)-2-(1-(cyclohexylmethoxy)-2-naphthamido)-3,3-dimethylbutanoic Acid] registered an EC50 of 3700 nM and an Emax of 144%. The “TECC24 AUC fold over DMSO @10 μM” value in assay [2] is on record as “C (“C” refers to AUC @10 uM <4)”.
Consider `CC(C)(C)[C@H](NC(=O)c1ccc2ccccc2c1OCc1ccc(C(F)(F)F)cc1)C(=O)O` [Example 74], for which, in assay [1], the EC50 came to 800 nM and the maximal effect (Emax) amounted to 216%. Besides, the “TECC24 AUC fold over DMSO @10 μM” value in assay [2] is “A (“A” refers to AUC @10 uM >6)”.
In assay [1], `CC(C)(C)[C@H](NC(=O)c1ccc2cc(F)ccc2c1OCc1ccc(SC(F)(F)F)cc1)C(=O)O` [Example 75, (S)-2-(6-fluoro-1-((4-((trifluoromethyl)thio)benzyl)oxy)-2-naphthamido)-3,3-dimethylbutanoic Acid] gave an EC50 of 700 nM and a maximal effect (Emax) of 94.2%. Further, the “TECC24 AUC fold over DMSO @10 μM” value in assay [2] is “B (“B” refers to AUC @10 uM between 4-6)”.
In assay [1], `CC1(C(NC(=O)c2ccc3ccccc3c2OCc2ccc(S(=O)(=O)C(F)(F)F)cc2)C(=O)O)CCCCC1` (stereo not drawn) [Example 77, 2-(1-methylcyclohexyl)-2-(1-((4-((trifluoromethyl)sulfonyl)benzyl)oxy)-2-naphthamido)acetic Acid] showed a 50% effective concentration (EC50) of 700 nM and a maximum response (Emax) of 78.9%. For the same compound, the “TECC24 AUC fold over DMSO @10 μM” value in assay [2] is on record as “C (“C” refers to AUC @10 uM <4)”.
Take `CCC(C)(C)[C@H](NC(=O)c1ccc2ccccc2c1OCc1ccc(C(F)(F)F)cc1)C(=O)O` [Example 78, (S)-3,3-dimethyl-2-(1-((4-(trifluoromethyl)benzyl)oxy)-2-naphthamido)pentanoic Acid]: in assay [1], the EC50 was 400 nM and the maximal effect (Emax) is 242%. The “TECC24 AUC fold over DMSO @10 μM” value in assay [2] was “A (“A” refers to AUC @10 uM >6)”.
Turning to `CC1(C(NC(=O)c2ccc3ccccc3c2OCc2ccc(C(F)(F)F)cc2)C(=O)O)CCCCC1` (stereo not drawn) [Example 80, 2-(1-methylcyclohexyl)-2-(1-((4-(trifluoromethyl)benzyl)oxy)-2-naphthamido)acetic Acid], in assay [1], the concentration giving a half-maximal response (EC50) amounted to 400 nM and the Emax amounted to 195%. Moreover, the “TECC24 AUC fold over DMSO @10 μM” value in assay [2] was “C (“C” refers to AUC @10 uM <4)”.

Source of the values: patent US12630498B2 (Genzyme Corporation, priority 2019, dated 2026).
